Results on 1 compound are retold here after patent publication US20130005759A1, “SMALL MOLECULE MODIFIERS OF MICRORNA MIR-122” (North Carolina State University, priority 2010, published 2013).

The subject of test [1] is miR-122. Kind of test: psiCHECK-miR122 dual luciferase reporter assay in Huh7 cells. The format is cell-based, human. The source says:
A miRNA small molecule modifier screen for miR-122 was developed based on the psiCHECK-2 (Promega) reporter plasmid (FIG. 9). This construct expresses both Renilla luciferase as well as firefly luciferase, allowing for the normalization of the signal to account for differential cellular viability and variability in transfection efficiency. The miR-122 target sequence was inserted downstream of the Renilla luciferase gene, between the PmeI and SgfI restriction sites. In another aspect of the invention, plasmids expressing luciferase or another reporter gene such as for example, fluorescent reporters (GFP and variants thereof, DsRed, etc.) or beta-galactosidase can be used to screen for small molecule modifiers of miR-122. The mi-122 target sequence may be upstream or downstream of the reporter gene. Multiple miR-122 target sites can also be inserted into or be present in the plasmid.
The presence of mature miR-122 will lead to a decrease in the Renilla luciferase signal (FIG. 1a). The ability to detect endogenous miR-122 was validated by transfecting the generated psiCHECK-miR122 construct into Huh7 and HeLa cells. After 48 hour incubation, the cells were assayed using a Dual Luciferase Assay Kit (Promega). In another embodiment, the cells can be incubated for about 24-96 hours. The Dual Luciferase Assay Kit provides a means to measure the amount of the luciferases by generating a luminescent signal. Using this assay the luminescence from the firefly luciferase reaction may be quenched while the luminescent reaction of Renilla luciferase can be activated. Other assays and procedures that can determine the amount of the one or more reporter genes or miR-122 expression, activity or function can be used. An example of another assay is Dual-Glo Assay (Promega).
The psiCHECK-miR122 vector was then employed in a small molecule screen in Huh7 cells to discover modifiers of miR-122 function. Other cells that express miR-122 such as HepG2 and Hep3B can be used in addition to or instead of Huh7 cells. An increase in the relative Renilla luciferase signal indicates a miR-122 inhibitor, while a reduction in the luciferase signal indicates a miR-122 activator. A genus of compounds that may have activity as modifiers of miR122 function are the Diversity Set II (1364 compounds) from the NCI Developmental Therapeutics Program was screened using Huh7 cells containing the psiCHECK-miR122 reporter. Cells were exposed to the small molecules and the relative luciferase signal was measured after 48 hours using a Dual Luciferase Assay Kit (Promega). In another embodiment the cells can be exposed to the small molecules for about 24-96 hours. As explained above, other assays and procedures that can determine the amount of the one or more reporter genes or miR-122 expression, activity or function can be used.
The analogs were screened for activity using the previously described miR-122 assay. All cells were treated with 10 μM of a compound and experiments were performed in triplicate to ensure statistical validity. The data was normalized to a 1% DMSO control and is reported in relative luciferase units (RLU). The standard deviation was calculated from three independent assays. Some analogs of miR-122 inhibitor compound 1 are:
Huh7 and HeLa cells were transfected at approximately 60% confluency with either the psiCHECK-Control plasmid (the original psiCHECK-2 plasmid containing no known miRNA binding site) or the psiCHECK-miR122 plasmid (0.5 μg) using X-tremGENE transfection reagent (3:2 reagent/DNA ratio; Roche) in Opti-Mem media (Invitrogen). All transfections were performed in triplicate for statistical analysis. The cells were incubated at 37° C. for 4 hours followed by the replacement of transfection media with standard DMEM growth media. After 48 hours of incubation the media was removed, cells were lysed and assayed with a Dual Luciferase Assay Kit (Promega) using a Wallac VICTOR^3V luminometer with a measurement time of 1 s and a delay time of 2 s. […]
(In general: Reporter assays use an easily measured gene product as a stand-in for the process of interest.)

Test [2] has as its system miR-122. As to the kind of experiment: quantitative RT PCR of mature miR-122 in Huh7 cells. The note with it: Huh7, 10 μM, 48 hours. Type of test: cell-based, human. As for the experimental part: The activity of the small molecule modifiers was analyzed by quantitative RT PCR in order to measure their direct effects on miR-122 expression levels in Huh7 cells. […] All experiments were conducted in triplicate, and the data was normalized to a DMSO control.
Each treatment was conducted in triplicate to ensure statistical validity. Cells were then incubated at 37° C. for 48 hours (DMEM, 5% CO2). The media was removed, and cells were washed with PBS buffer (2×2 mL, pH 7.4) followed by RNA isolation with the mirPremier™ microRNA Isolation Kit (Aldrich). The RNA was quantified using a Nanodrop ND-1000 spectrophotometer and 10 ng of each RNA sample was reverse transcribed using the TaqMan™ microRNA Reverse Transcription Kit (Applied Biosystems) in conjunction with either the miR-122 or miR-21 TaqMan™ RT primer (16° C., 30 min; 42° C., 30 min; 85° C., 5 min). Quantitative Real Time PCR was conducted with a TaqMan™ 2× Universal PCR Master Mix and the appropriate TaqMan™ miRNA assay (Applied Biosystems) on a BioRad MyiQ RT-PCR thermocycler (1.3 μL RT PCR product; 95° C., 10 min; followed by 40 cycles of 95° C., 15 s; 60° C. 60 s). Threshold cycles were used to determine miRNA copy numbers, and the levels of miR-122 and miR-21 were compared via determination of threshold cycle (Ct) and conversion to copy number (copy number=10[(Ct−37.4)/−3.3]).^17 The data was then normalized to the DMSO control. The samples were also analyzed by real time PCR for the presence of pri-miR-122 transcript using the previously described primers (5′ […] 3′ (SEQ ID NO:5) and 5′ […] 3′ (SEQ ID NO:6); IDT DNA) and iQ SYBR Green Supermix for the real time PCR (95° C., 3 min; followed by 40 cycles of 95° C., 15 s; 60° C. 60 s).^14

A further test has as its system caspase-3 and -7. As to the kind of experiment: Caspase-Glo 3/7 assay in HepG2 cells. The format is cell-based. To be noted: HepG2, 10 μM, 48 hours. The source says: (§1) This enhanced caspase activity led to a reduced cell viability of ˜20% (CellTiter-Glo, Promega) (FIGS. 8A and B), exceeding previously reported reductions in cell viability due to lentiviral over-expression of miR-122 in HepG2 cells.^13 An increased caspase 3/7 level is observed in HepG2 cells due to activation of the pro-apoptic miR-122 (FIG. 8A). This increase is more pronounced in HepG2 than Huh7 cells, due to the different basal miR-122 levels in both cell lines. […] Thus, a small molecule activator of miR-122, like compound 3, has therapeutic relevance towards the selective treatment of HCC.
Both HepG2 and Huh7 cells were passaged into a 96-well plate and grown to 70% confluency. The media was then removed and replaced with standard growth media supplemented with 3 (10 μM) or a DMSO control (1% final DMSO concentration in all wells) and incubated for 48 hours at 37° C. All incubations were conducted in triplicate to ensure statistical validity. The media was removed and cells were assayed with the Caspase-Glo 3/7 (Promega) kit according to the manufacturers directions and luminescence was measured using a Wallac VICTOR^3V luminometer with a measurement time of 1 s and a delay time of 2 s.

The test system of the next test is HepG2 cells. Kind of test: CellTiter-Glo cell viability in HepG2 cells. The format is cell-based. The note with it: HepG2, 10 μM, 48 hours. (In general: In ATP-based viability assays light output follows the ATP content of the culture.)
The subject of the next test is miR-21. Kind of test: miR-21 luciferase reporter assay in HeLa-miR-21-Luc cells. The format is cell-based. The note with it: 10 μM, 48 hours. The method, then:
Using the previously described HeLa-miR-21-Luc cell line (a stably transfected line harboring a miR-21 binding sequence in the 3′ UTR of a firefly luciferase gene),(9) cells were grown to 80% confluency (DMEM) and treated with either DMSO, the previously reported miR-21 inhibitor, or compounds 1 and 2 at 10 μM (1% DMSO final concentration). The cells were incubated for 48 hours at 37° C. (5% CO2) and then assayed with a Bright-Glo Luciferase Kit (Promega) and analyzed using a Wallac VICTOR^3V luminometer with a measurement time of 1 s and a delay time of 2 s (FIG. 4).

The next test deals with Huh7 cells. Kind of test: CellTiter-Glo cell viability in Huh7 cells. The format is cell-based, human. To be noted: Huh7, exposure to compound.
From the text: as §1
HepG2 and Huh7 cells were passaged into a 96-well plate and grown to 60% confluency. The media was then removed and replaced with standard growth media supplemented with increasing concentrations of the miR-122 small molecule modifiers (0-20 μM; 1% final DMSO concentration) and incubated for 48 hours at 37° C. Cellular viability was then assessed using a Cell-Titer Glo Assay (Promega) according to the manufacturers directions and luminescence was measured using a Wallac VICTOR^3V luminometer with a measurement time of 1 s and a delay time of 2 s.

Broadly, the IC50 is the concentration needed to halve the response being measured. As to `CN(C)CCN1C(=O)c2cccc3cc(N)cc(c23)C1=O` [Compound 3], the IC50 with miR-122 [1] (Homo sapiens, Huh-7, Huh7, calculated from FIG. 5, read-out: IC50 (miR-122 activator, luciferase dose response)) was 370 ± 20 nM. Moreover, the “reduction of the Renilla luciferase signal” value in the test on miR-122 [1] (Huh7, psiCHECK-miR122, 10 μM) was 7 fold. Moreover, the “relative luciferase units (RLU) normalized to a DMSO control” value with miR-122 [1] (Huh7, psiCHECK-miR122, 10 μM, mean ± SD of three independent assays) amounted to 0.11±0.02 RLU. Moreover, the “increase in miR-122 expression levels” value in the test with miR-122 [2] was 438%. Further, the “increase in the activity of caspase-3 and -7” value with caspase-3 and -7 was about 20 fold. This compound had a reduced cell viability in the test with HepG2 cells of about 20%. The “activity in miRNA-21 reporter (luciferase signal)” value with miR-21 is on record as “No effect”. The “cell viability (in words)” value in the test on Huh7 cells was “only slightly affected”.
